Measurements taken from US6706663B2, “Herbicidal 3-heterocyclic substituted benzisothiazole and benzisoxazole compounds” (Wyeth, priority 2000, dated 2004).

Columns and labels:
[1] = system: ABUTH (Abutilon theophrasti); assay: Postemergence herbicidal evaluation; assay type: in vivo, Medic.; details: postemergence
Procedure, shortened: (§1)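 Seedlings grown for about two weeks were sprayed postemergence and then kept under standard greenhouse care. Injury was rated visually 4–5 weeks after treatment on a 0–9 scale against untreated controls, and ratings from repeat tests were averaged.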

[2] = system: AMBEL (Ambrosia artemisifolia); assay: Postemergence herbicidal evaluation; assay type: in vivo, L.; details: postemergence
Procedure, shortened: as §1

[3] = system: CASOB (Cassia obtusifolia); assay: Postemergence herbicidal evaluation; assay type: in vivo, L.; details: postemergence
Procedure, shortened: as §1

[4] = system: CHEAL (Chenopodium album); assay: Postemergence herbicidal evaluation; assay type: in vivo, L.; details: postemergence
Procedure, shortened: as §1

[5] = system: IPOHE (Ipomoea hederacea); assay: Postemergence herbicidal evaluation; assay type: in vivo, (L.) Jacq.; details: postemergence
Procedure, shortened: as §1

[6] = system: GLXMAW (Soybean, Williams); assay: Postemergence herbicidal evaluation; assay type: in vivo, Glycine max, (L.) Merr. cv Williams; details: postemergence
Procedure, shortened: as §1

[7] = system: ORYSAT (Rice, Tebonnet); assay: Postemergence herbicidal evaluation; assay type: in vivo, Oryza sativa, (L.) Tebonnet; details: postemergence
Procedure, shortened: as §1

[8] = system: ABUTH (Abutilon theophrasti); assay: Preemergence herbicidal evaluation; assay type: in vivo, Medic.; details: rated 4-5 weeks after treatment
[9] = system: AMBEL (Ambrosia artemisifolia); assay: Preemergence herbicidal evaluation; assay type: in vivo, L.; details: rated 4-5 weeks after treatment
Procedure, shortened: (§2)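 Seeds mixed with potting soil were planted atop about one inch of soil, then sprayed with test compound in aqueous acetone. Cups were kept in the greenhouse and rated visually 4–5 weeks after treatment on a 0–9 scale against untreated control.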

[10] = system: CASOB (Cassia obtusifolia); assay: Preemergence herbicidal evaluation; assay type: in vivo, L.; details: rated 4-5 weeks after treatment
Procedure, shortened: as §2

[11] = system: CHEAL (Chenopodium album); assay: Preemergence herbicidal evaluation; assay type: in vivo, L.; details: rated 4-5 weeks after treatment
Procedure, shortened: as §2

[12] = system: IPOHE (Ipomoea hederacea); assay: Preemergence herbicidal evaluation; assay type: in vivo, (L.) Jacq.; details: rated 4-5 weeks after treatment
[13] = system: ECHCG (Echinochloa crus-galli); assay: Preemergence herbicidal evaluation; assay type: in vivo, (L.) Beau; details: rated 4-5 weeks after treatment
Procedure, shortened: as §2

[14] = system: SETVI (Setaria viridis); assay: Preemergence herbicidal evaluation; assay type: in vivo, (L.) Beau; details: rated 4-5 weeks after treatment
Procedure, shortened: as §2

[15] = system: GLXMAW (Soybean, Williams); assay: Preemergence herbicidal evaluation; assay type: in vivo, Glycine max, (L.) Merr. cv Williams; details: rated 4-5 weeks after treatment
[16] = system: TRZAWR (Wheat, Winter, cv Riband); assay: Preemergence herbicidal evaluation; assay type: in vivo, Triticum aestivum; details: rated 4-5 weeks after treatment
Procedure, shortened: as §2

[17] = system: ZEAMX (Corn, Field); assay: Preemergence herbicidal evaluation; assay type: in vivo, Zea mays, L.; details: rated 4-5 weeks after treatment
[18] = system: CYPIR (Cyperus iria); assay: Flooded paddy, preemergence weed control; assay type: in vivo; details: rated 3-4 weeks after treatment, 0-9 rating scale
Procedure, shortened: (§3)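 Ratings of 0-9 reflect visual comparison with a control for stand, vigor, deformity, size, chlorosis and overall look. Propagules were placed in shallow silt loam (top 0.5 cm) under a continuous 1.5–3 cm flood and grown in the greenhouse.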

[19] = system: MOOVA (Monochoria vaginalis); assay: Flooded paddy, preemergence weed control; assay type: in vivo, Presl.; details: rated 3-4 weeks after treatment, 0-9 rating scale
Procedure, shortened: as §3

[20] = system: ORYSAT (Rice, Tebonnet); assay: Flooded paddy, post-transplant rice tolerance; assay type: in vivo, Oryza sativa, (L.) Tebonnet; details: flooded paddy, post-transplant rice, rated 3-4 weeks after treatment, 0-9 rating scale
Procedure, shortened: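 Two ten-day-old seedlings were transplanted into silt loam, flooded and held at 1.5 to 3 cm water above the soil before herbicide treatment. Pots stayed in the greenhouse at that water level. Injury was scored visually on a 0-9 scale versus untreated control.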

COCC1COC(c2nsc3ccc(-n4c(=O)cc(C(F)(F)F)n(C)c4=O)cc23)O1 (centres unmarked) [Compound 64, 3-[3-[4-(methoxymethyl)-1,3-dioxolan-2-yl]-1,2-benzisothiazol-5-yl]-1-methyl-6-(trifluoromethyl)uracil]
ABUTH herbicidal rating ([1]; rate 0.0320 kg/ha): 9.0 | ABUTH herbicidal rating ([1]; rate 0.0620 kg/ha): 9.0 | AMBEL herbicidal rating ([2]; rate 0.0320 kg/ha): 9.0 | AMBEL herbicidal rating ([2]; rate 0.0620 kg/ha): 9.0 | CASOB herbicidal rating ([3]; rate 0.0320 kg/ha): 4.0 | CASOB herbicidal rating ([3]; rate 0.0620 kg/ha): 5.0 | CHEAL herbicidal rating ([4]; rate 0.0320 kg/ha): 9.0 | CHEAL herbicidal rating ([4]; rate 0.0620 kg/ha): 9.0 | IPOHE herbicidal rating ([5]; rate 0.0320 kg/ha): 9.0 | IPOHE herbicidal rating ([5]; rate 0.0620 kg/ha): 9.0 | GLXMAW herbicidal rating ([6]; rate 0.0320 kg/ha): 7.0 | GLXMAW herbicidal rating ([6]; rate 0.0620 kg/ha): 8.5 | ORYSAT herbicidal rating ([7]; rate 0.0320 kg/ha): 5.0 | ORYSAT herbicidal rating ([7]; rate 0.0620 kg/ha): 5.5 | Preemergence herbicidal rating ABUTH ([8]; Rate 0.0620 kg/ha): 9.0 | Preemergence herbicidal rating ABUTH ([8]; Rate 0.1250 kg/ha): 9.0 | Preemergence herbicidal rating ABUTH ([8]; Rate 0.2500 kg/ha): 9.0 | Preemergence herbicidal rating AMBEL ([9]; Rate 0.0620 kg/ha): 9.0 | Preemergence herbicidal rating AMBEL ([9]; Rate 0.1250 kg/ha): 9.0 | Preemergence herbicidal rating AMBEL ([9]; Rate 0.2500 kg/ha): 9.0 | Preemergence herbicidal rating CASOB ([10]; Rate 0.0620 kg/ha): 7.5 | Preemergence herbicidal rating CASOB ([10]; Rate 0.1250 kg/ha): 9.0 | Preemergence herbicidal rating CASOB ([10]; Rate 0.2500 kg/ha): 9.0 | Preemergence herbicidal rating CHEAL ([11]; Rate 0.0620 kg/ha): 9.0 | Preemergence herbicidal rating CHEAL ([11]; Rate 0.1250 kg/ha): 9.0 | Preemergence herbicidal rating CHEAL ([11]; Rate 0.2500 kg/ha): 9.0 | Preemergence herbicidal rating IPOHE ([12]; Rate 0.0620 kg/ha): 7.0 | Preemergence herbicidal rating IPOHE ([12]; Rate 0.1250 kg/ha): 9.0 | Preemergence herbicidal rating IPOHE ([12]; Rate 0.2500 kg/ha): 9.0 | Preemergence herbicidal rating ECHCG ([13]; Rate 0.0620 kg/ha): 9.0 | Preemergence herbicidal rating ECHCG ([13]; Rate 0.1250 kg/ha): 9.0 | Preemergence herbicidal rating ECHCG ([13]; Rate 0.2500 kg/ha): 9.0 | Preemergence herbicidal rating SETVI ([14]; Rate 0.0620 kg/ha): 9.0 | Preemergence herbicidal rating SETVI ([14]; Rate 0.1250 kg/ha): 9.0 | Preemergence herbicidal rating SETVI ([14]; Rate 0.2500 kg/ha): 9.0 | Preemergence herbicidal rating GLXMAW ([15]; Rate 0.0620 kg/ha): 9.0 | Preemergence herbicidal rating GLXMAW ([15]; Rate 0.1250 kg/ha): 9.0 | Preemergence herbicidal rating GLXMAW ([15]; Rate 0.2500 kg/ha): 9.0 | Preemergence herbicidal rating TRZAWR ([16]; Rate 0.0620 kg/ha): 9.0 | Preemergence herbicidal rating TRZAWR ([16]; Rate 0.1250 kg/ha): 9.0 | Preemergence herbicidal rating TRZAWR ([16]; Rate 0.2500 kg/ha): 9.0 | Preemergence herbicidal rating ZEAMX ([17]; Rate 0.0620 kg/ha): 8.5 | Preemergence herbicidal rating ZEAMX ([17]; Rate 0.1250 kg/ha): 9.0 | Preemergence herbicidal rating ZEAMX ([17]; Rate 0.2500 kg/ha): 9.0 | herbicidal rating, CYPIR ([18]; rate 0.0080 kg/ha): 1.5 | herbicidal rating, CYPIR ([18]; rate 0.0320 kg/ha): 6.0 | herbicidal rating, CYPIR ([18]; rate 0.1250 kg/ha): 9.0 | herbicidal rating, MOOVA ([19]; rate 0.0080 kg/ha): 0.0 | herbicidal rating, MOOVA ([19]; rate 0.0320 kg/ha): 9.0 | herbicidal rating, MOOVA ([19]; rate 0.1250 kg/ha): 9.0 | herbicidal rating, ORYSAT (rice tolerance) ([20]; rate 0.0080 kg/ha): 5.5 | herbicidal rating, ORYSAT (rice tolerance) ([20]; rate 0.0320 kg/ha): 8.0 | herbicidal rating, ORYSAT (rice tolerance) ([20]; rate 0.1250 kg/ha): 9.0
